≈ marks a conversion by molar mass, not a printed value. Where two headings read alike, the source gives them in different places.
What was measured:
Botrtyis cinerea (Bc) = experiment: Growth inhibition assay of fungal pathogens, Bc; assay type: cell-based; conditions: 48 h
How it was run: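 Spore suspension in 17% V8 liquid media; cpd final 50/10/2 or 2/0.4/0.08 ppm, 2% DMSO. OD600 + visual, 24 & 48 h; % inhibition at 48 h vs 2% DMSO ctrl.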

C. albicans = experiment: Antifungal Activity Assay (broth microtiter MIC), C. albicans; assay type: cell-based, Candida albicans; conditions: Candida albicans, ATCC90028, 48 h
How it was run: (§1)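 Susceptibility was determined by CLSI M27-A3 broth microdilution in RPMI 1640 buffered with MOPS. Growth inhibition was scored visually after 48 h.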

C. krusei = experiment: Antifungal Activity Assay (broth microtiter MIC), C. krusei; assay type: cell-based, Candida krusei; conditions: Pichia kudriavzevii, ATCC6258, 48 h
How it was run: as §1

[1] = Botrtyis cinerea, growth inhibition at 48 hours vs 2% DMSO control, read-out: Concentration at 90% Inhibition Bc
[2] = Botrtyis cinerea, growth inhibition vs 2% DMSO control at 48 hours, read-out: Concentration at 90% Inhibition Bc
[3] = Table 3a, ATCC 90028, 3 replicates, MIC recorded at 48 h, read-out: MIC, C. albicans ATCC 90028
[4] = Table 3b (additional results), ATCC 90028, 3 replicates, MIC recorded at 48 h, read-out: MIC, C. albicans ATCC 90028
[5] = Table 3a, ATCC 6258, 3 replicates, MIC recorded at 48 h, read-out: MIC, C. krusei ATCC 6258
[6] = Table 3b (additional results), ATCC 6258, 3 replicates, MIC recorded at 48 h, read-out: MIC, C. krusei ATCC 6258
[7] = read-out: Concentration at 90% Inhibition Bc, Botrtyis cinerea, growth inhibition at 48 hours vs 2% DMSO control
[8] = read-out: Concentration at 90% Inhibition Bc, Botrtyis cinerea, growth inhibition vs 2% DMSO control at 48 hours
[9] = read-out: MIC, C. albicans ATCC 90028, Table 3a, 3 replicates, MIC recorded at 48 h
[10] = read-out: MIC, C. albicans ATCC 90028, Table 3b (additional results), 3 replicates, MIC recorded at 48 h
[11] = read-out: MIC, C. krusei ATCC 6258, Table 3a, 3 replicates, MIC recorded at 48 h
[12] = read-out: MIC, C. krusei ATCC 6258, Table 3b (additional results), 3 replicates, MIC recorded at 48 h

For COc1ccc(F)cc1[C@H](Cn1c(=O)n([C@H](C)C(=O)N(C)C(C)C)c(=O)c2c(C)c(-n3nccn3)sc21)OCCO [Compound I-85, (R)-2-(1-((R)-2-(5-fluoro-2-methoxyphenyl)-2-(2-hydroxy-ethoxy)ethyl)-5-methyl-2,4-dioxo-6-(2H-1,2,3-triazol-2-yl)-1,4-dihydro-thieno[2,3-d]pyrimidin-3(2H)-yl)-N-isopropyl-N-methylpropanamide], the IC90 (Botrtyis cinerea (Bc); [1]) was 2 µg/mL (≈ 3.4 µM), the IC90 (Botrtyis cinerea (Bc); [2]) was 2 µg/mL (≈ 3.4 µM) and the MIC (C. albicans; [3]) was 0.25 to 1 µg/mL (≈ 0.425 to 1.7 µM). For the same molecule, the MIC (C. albicans; [4]) was 1.01 to 2 µg/mL (≈ 1.72 to 3.4 µM), the MIC (C. krusei; [5]) was 0.25 to 1 µg/mL (≈ 0.425 to 1.7 µM) and the MIC (C. krusei; [6]) was 1.01 to 2 µg/mL (≈ 1.72 to 3.4 µM).

For COCCCO[C@@H](Cn1c(=O)n([C@@H](C)C(=O)NC(C)C)c(=O)c2c(C)c(-n3nccn3)sc21)c1cc(F)ccc1OC [Compound I-86, (S)-2-(1-((R)-2-(5-fluoro-2-methoxyphenyl)-2-(3-methoxy-propoxy)ethyl)-5-methyl-2,4-dioxo-6-(2H-1,2,3-triazol-2-yl)-1,4-dihydrothieno[2,3-d]pyrimidin-3(2H)-yl)-N-isopropylpropanamide], the IC90 (Botrtyis cinerea (Bc); [7]) was 0.4 µg/mL (≈ 0.664 µM), the IC90 (Botrtyis cinerea (Bc); [8]) was 0.4 µg/mL (≈ 0.664 µM) and the MIC (C. albicans; [9]) was 2.1 to 4 µg/mL (≈ 3.48 to 6.64 µM). It also gave an MIC (C. albicans; [10]) of 2.01 to 4 µg/mL (≈ 3.34 to 6.64 µM), an MIC (C. krusei; [11]) of 2.1 to 4 µg/mL (≈ 3.48 to 6.64 µM) and an MIC (C. krusei; [12]) of 1.01 to 2 µg/mL (≈ 1.68 to 3.32 µM).

COCCCO[C@@H](Cn1c(=O)n([C@H](C)C(=O)NC(C)C)c(=O)c2c(C)c(-n3nccn3)sc21)c1cc(F)ccc1OC [Compound I-87, (R)-2-(1-((R)-2-(5-fluoro-2-methoxyphenyl)-2-(3-methoxy-propoxy)ethyl)-5-methyl-2,4-dioxo-6-(2H-1,2,3-triazol-2-yl)-1,4-dihydrothieno[2,3-d]pyrimidin-3(2H)-yl)-N-isopropylpropanamide] gave an IC90 (Botrtyis cinerea (Bc); [1]) of 0.08 µg/mL (≈ 0.133 µM), an IC90 (Botrtyis cinerea (Bc); [2]) of 0.08 µg/mL (≈ 0.133 µM) and an MIC (C. albicans; [3]) of 1.1 to 2 µg/mL (≈ 1.83 to 3.32 µM). The MIC (C. albicans; [4]) was 2.01 to 4 µg/mL (≈ 3.34 to 6.64 µM), the MIC (C. krusei; [5]) was 1.1 to 2 µg/mL (≈ 1.83 to 3.32 µM) and the MIC (C. krusei; [6]) was 1.01 to 2 µg/mL (≈ 1.68 to 3.32 µM).

COc1ccc(F)cc1[C@H](Cn1c(=O)n([C@@H](C)C(=O)NC(C)C)c(=O)c2c(C)c(-n3nccn3)sc21)OCCO [Compound I-88, (S)-2-(1-((R)-2-(5-fluoro-2-methoxyphenyl)-2-(2-hydroxyethoxy)ethyl)-5-methyl-2,4-dioxo-6-(2H-1,2,3-triazol-2-yl)-1,4-dihydro-thieno[2,3-d]pyrimidin-3(2H)-yl)-N-isopropylpropanamide] showed an IC90 (Botrtyis cinerea (Bc); [7]) of 2 µg/mL (≈ 3.48 µM), an IC90 (Botrtyis cinerea (Bc); [8]) of 2 µg/mL (≈ 3.48 µM) and an MIC (C. albicans; [9]) of 1.1 to 2 µg/mL (≈ 1.91 to 3.48 µM). It also gave an MIC (C. albicans; [10]) of 2.01 to 4 µg/mL (≈ 3.5 to 6.96 µM), an MIC (C. krusei; [11]) of 0.25 to 1 µg/mL (≈ 0.435 to 1.74 µM) and an MIC (C. krusei; [12]) of 1.01 to 2 µg/mL (≈ 1.76 to 3.48 µM).

In the case of COc1ccc(F)cc1[C@H](Cn1c(=O)n([C@H](C)C(=O)NC(C)C)c(=O)c2c(C)c(-n3nccn3)sc21)OCCO [Compound I-89, (R)-2-(1-((R)-2-(5-fluoro-2-methoxyphenyl)-2-(2-hydroxy-ethoxy)ethyl)-5-methyl-2,4-dioxo-6-(2H-1,2,3-triazol-2-yl)-1,4-dihydrothieno[2,3-d]pyrimidin-3(2H)-yl)-N-isopropylpropanamide], the IC90 (Botrtyis cinerea (Bc); [7]) is reported as 0.4 µg/mL (≈ 0.696 µM), the IC90 (Botrtyis cinerea (Bc); [8]) is reported as 0.4 µg/mL (≈ 0.696 µM) and the MIC (C. albicans; [9]) is reported as 2.1 to 4 µg/mL (≈ 3.65 to 6.96 µM). For the same molecule, the MIC (C. albicans; [10]) was 2.01 to 4 µg/mL (≈ 3.5 to 6.96 µM), the MIC (C. krusei; [11]) was 2.1 to 4 µg/mL (≈ 3.65 to 6.96 µM) and the MIC (C. krusei; [12]) was 1.01 to 2 µg/mL (≈ 1.76 to 3.48 µM).

Work on COc1ccc(F)cc1[C@H](Cn1c(=O)n(C(C)(C)C(=O)NC(C)C)c(=O)c2c(C)c(-n3nccn3)sc21)OCCC(N)=O [Compound I-90, (R)-2-(1-(2-(3-amino-3-oxopropoxy)-2-(5-fluoro-2-metho-xyphenyl)ethyl)-5-methyl-2,4-dioxo-6-(2H-1,2,3-triazol-2-yl)-1,4-dihydro-thieno[2,3-d]pyrimidin-3(2H)-yl)-N-isopropyl-2-methylpropanamide] yielded an IC90 (Botrtyis cinerea (Bc); [1]) of 2 µg/mL (≈ 3.25 µM), an IC90 (Botrtyis cinerea (Bc); [2]) of 2 µg/mL (≈ 3.25 µM) and an MIC (C. albicans; [3]) of 2.1 to 4 µg/mL (≈ 3.41 to 6.5 µM). It also gave an MIC (C. albicans; [4]) of 0.25 to 1 µg/mL (≈ 0.406 to 1.62 µM), an MIC (C. krusei; [5]) of 1.1 to 2 µg/mL (≈ 1.79 to 3.25 µM) and an MIC (C. krusei; [6]) of 0.25 to 1 µg/mL (≈ 0.406 to 1.62 µM).

Molecule COc1ccc(F)cc1[C@H](Cn1c(=O)n(C(C)(C)C(=O)NC(C)C)c(=O)c2c(C)c(-n3nccn3)sc21)OCCC#N [Compound I-91, (R)-2-(1-(2-(2-cyanoethoxy)-2-(5-fluoro-2-methoxy-phenyl)ethyl)-5-methyl-2,4-dioxo-6-(2H-1,2,3-triazol-2-yl)-1,4-dihydro-thieno[2,3-d]pyrimidin-3(2H)-yl)-N-isopropyl-2-methylpropanamide] has an IC90 (Botrtyis cinerea (Bc); [1]) of 0.4 µg/mL (≈ 0.669 µM), an IC90 (Botrtyis cinerea (Bc); [2]) of 0.4 µg/mL (≈ 0.669 µM) and an MIC (C. albicans; [3]) of 0.25 to 1 µg/mL (≈ 0.418 to 1.67 µM). The MIC (C. albicans; [4]) was 1.01 to 2 µg/mL (≈ 1.69 to 3.35 µM), the MIC (C. krusei; [5]) was 0.06 to 0.24 µg/mL (≈ 0.1 to 0.402 µM) and the MIC (C. krusei; [6]) was 0.25 to 1 µg/mL (≈ 0.418 to 1.67 µM).

Source: patent US10800791B2, “Triazole ACC inhibitors and uses thereof” (Gilead Apollo, LLC, priority 2015, dated 2020)
